Data taken from patent EP4772505A1, “COMPOUND FOR DEGRADING ANDROGEN RECEPTOR AND MEDICAL USE THEREOF” (Ubix Therapeutics, Inc., priority 2023, dated 2025).
Read-outs that look alike come from different tables or passages of the source.

Target: T1, Androgen Receptor (AR) (Homo sapiens, UniProt P10275)
T1 sequence (P10275 1-920): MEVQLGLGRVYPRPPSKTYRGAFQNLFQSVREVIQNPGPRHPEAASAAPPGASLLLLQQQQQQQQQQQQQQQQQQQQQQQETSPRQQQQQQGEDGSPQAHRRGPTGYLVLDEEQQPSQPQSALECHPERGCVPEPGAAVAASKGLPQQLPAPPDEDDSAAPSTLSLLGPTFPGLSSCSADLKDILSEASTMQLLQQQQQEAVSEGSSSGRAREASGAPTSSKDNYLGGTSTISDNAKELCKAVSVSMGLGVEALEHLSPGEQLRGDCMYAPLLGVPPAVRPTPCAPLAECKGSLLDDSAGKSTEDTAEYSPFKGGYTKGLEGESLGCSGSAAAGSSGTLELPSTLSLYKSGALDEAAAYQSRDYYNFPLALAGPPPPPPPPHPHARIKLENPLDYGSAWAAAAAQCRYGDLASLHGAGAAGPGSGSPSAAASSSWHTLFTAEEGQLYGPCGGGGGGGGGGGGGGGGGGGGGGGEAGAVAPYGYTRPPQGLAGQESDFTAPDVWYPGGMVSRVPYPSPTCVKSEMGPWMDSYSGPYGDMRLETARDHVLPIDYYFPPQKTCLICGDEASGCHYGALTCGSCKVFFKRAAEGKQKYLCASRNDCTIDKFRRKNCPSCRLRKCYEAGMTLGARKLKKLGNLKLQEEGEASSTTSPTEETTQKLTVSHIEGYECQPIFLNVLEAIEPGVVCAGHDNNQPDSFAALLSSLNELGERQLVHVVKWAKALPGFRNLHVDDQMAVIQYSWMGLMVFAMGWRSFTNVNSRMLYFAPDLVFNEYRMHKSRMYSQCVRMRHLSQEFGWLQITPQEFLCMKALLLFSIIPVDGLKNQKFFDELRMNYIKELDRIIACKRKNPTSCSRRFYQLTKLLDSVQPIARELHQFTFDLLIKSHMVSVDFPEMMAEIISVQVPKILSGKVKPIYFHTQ
Test: Measurement of AR protein degradation in VCaP cells by Western blotting
Type: cell-based
Parameters: endogenous in cells; host or cells: VCaP
Details: for Dmax at 0.01 µM / Dmax at 0.1 µM: read-out: AR degradation in VCaP cells (%); for Dmax: read-out: AR degradation in VCaP cells Dmax (%); for DC50: read-out: AR degradation in VCaP cells DC50
Procedure: The amount of AR protein present in LNCaP or VCaP cells was measured after treating them with the synthesized compound. The amount of AR protein was measured using Western blotting. The protocol for the experiments using LNCaP or VCaP cells was as follows.
[Culture] LNCaP cells were resuspended in RPMI1640 medium + HEPES (Hyclone, SH30255.01), 10% FBS (Hyclone, SV30207.02), and 1% Penicillin-streptomycin (Welgene, LS 202-02). 3 x 10^5 cells/mL were seeded in 12-well plates (1 mL per well) and cultured for 3 days. VCaP cells were resuspended in IMDM MEDIUM (Hyclone, SH30228.01), 20% FBS (Hyclone, SV30207.02), and 1% Penicillin-streptomycin (Welgene, LS 202-02), seeded at 9 x 10^5/mL in 1 mL per 12-well plate, and cultured for 3 days.
[Compound Treatment] 10 µL of 100x stock (e.g., 0.1, 1, 10 µM) compound solution at the final compound treatment concentration (e.g., 0.001, 0.01, 0.1 µM) was added to each well in 1 mL media, and cells were harvested after 20 hours. For DC50 measurement, 100x stock (0.01, 0.1, 1, 10, 100, 1000 µM) compound solutions at the final compound treatment concentration (0.0001, 0.001, 0.01, 0.1, 1, 10 µM) were used.
[Cell lysis] The cell pellet was suspended using 1% SDS lysis buffer (50 mM Tris, 1 mM EDTA, 1% SDS, pH 8.0, 0.5 mM PMSF, 1x Protease/Phosphatase inhibitor Cocktail (Cell Signaling Technology, 5872S)), and sonication (70% AMP, 10 cycles (30 sec ON/59 sec OFF)) was performed. After centrifugation at 4°C and 20,000 g for 20 minutes, the cell lysate was obtained and transferred to a new tube.
[Protein Quantification] A BCA protein assay (SMART™ BCA Protein Assay Kit, iNtRON Biotechnology, 21071) was performed using a 96-well microplate. 5 µL of cell lysate and 5 µL of 1% SDS lysis buffer were added to each well of the 96-well plate, followed by an additional 200 µL of BCA reagent (Reagent A: Reagent B = 50:1). The wells were incubated at 37°C for 30 minutes and cooled to room temperature for 10 minutes. After shaking for 10 seconds, the absorbance was measured at a wavelength of 562 nm. The unknown protein concentration was determined using a BSA standard curve (0, 0.125, 0.25, 0.5, 1, 2 mg/mL). Western blotting samples were prepared by mixing cell lysate, 1% SDS lysis buffer, 4x NuPAGE™ LDS Sample buffer (Invitrogen, NP0008), and 10X NuPAGE™ Sample Reducing Agent (Invitrogen, NP0009) and boiling at 70°C for 10 minutes.
[Electrophoresis] 10 µg of protein sample was loaded into each well of a NuPAGE™ 4 to 12%, Bis-Tris, 1.0 mm Mini Protein Gel, 15-well, 17-well, or 26-well (Invitrogen, NP0323BOX, NP0329BOX, or WG1403BOX) and electrophoresed for 40 minutes using NuPAGE™MES SDS Running Buffer (Invitrogen, NP0002) at 200 V (constant V).
[Transfer] Transfer was performed for 15 or 18 minutes using the electrophoresed gel and the Trans-Blot® Turbo™ Transfer Starter System (Bio-RAD, #17001918, Mini Nitrocellulose) at 1.3 A (constant A) and 25 V (limit V). To confirm protein transfer, 15 mL of Ponceau S solution (Sigma, P7170-1L) was used to stain for 1 minute, and then washed to check the degree of transfer.
[Blocking] The membrane for AR and GAPDH detection was blocked with 5% skim milk/0.2% TBST (Skim milk: BD, 232100/ 20X TBS: Biosesang, TR2008-100-00/ 10% Tween 20 Solution: Bio-RAD, #161-0781) for 45 minutes.
[Antibodies and Detection] Primary AR antibody (Androgen Receptor: CST, 5153S) was mixed with 5% skim milk/0.2% TBST at a ratio of 1:1,000 and reacted at room temperature for 3 hours or at 4°C overnight. Primary GAPDH antibody (CST, 2118S) was mixed with 5% skim milk/0.2% TBST at a ratio of 1:2,000 and reacted at room temperature for 3 hours or at 4°C overnight. Afterwards, TBST (0.2% Tween 20) was used for washing three times every 5 minutes. Secondary antibody to AR antibody, Anti-rabbit IgG, HRP-linked Antibody (CST, 7074S), was mixed with 5% skim milk/0.2% TBST at a ratio of 1:5,000 and reacted at room temperature for 45 minutes. […]

[1] = 10 nM compound, 20 hours, VCaP cells
[2] = 100 nM compound, 20 hours, VCaP cells

SMILES: N#Cc1ccc(N2CCC(C(=O)Nc3ccc(OC4CCN(CC5CCN(c6ccc(NC7CCC(=O)NC7=O)cc6F)CC5)CC4)nn3)CC2)cc1C(F)(F)F (stereo not drawn) [Example 7, 1-(4-cyano-3-(trifluoromethyl)phenyl)-N-(6-((1-((1-(4-((2,6-dioxopiperidin-3-yl)amino)-2-fluorophenyl)piperidin-4-yl)methyl)piperidin-4-yl)oxy)pyridazin-3-yl)piperidine-4-carboxamide]
- Dmax at 0.01 µM (VCaP, 20 h): 94%
- Dmax at 0.1 µM (VCaP, 20 h): 100%

SMILES: N#Cc1ccc(N2CCC(C(=O)Nc3ccc(OC4CCN(CC5CCN(c6ccc(N[C@H]7CCC(=O)NC7=O)cc6F)CC5)CC4)cn3)CC2)cc1Cl [Example 9, (S)-1-(3-chloro-4-cyanophenyl)-N-(5-((1-((1-(4-((2,6-dioxopiperidin-3-yl)amino)-2-fluorophenyl)piperidin-4-yl)methyl)piperidin-4-yl)oxy)pyridin-2-yl)piperidine-4-carboxamide]
- Dmax at 0.01 µM (VCaP, 20 h): 94%
- Dmax at 0.1 µM (VCaP, 20 h): 99%
- Dmax (VCaP): 99%
- DC50 (VCaP cells, 20 hours): 0.1 nM

SMILES: N#Cc1ccc(N2CCC(C(=O)Nc3ccc(OC4CCN(CC5CCN(c6ccc(NC7CCC(=O)NC7=O)cc6F)CC5)CC4)nn3)CC2)c(F)c1Cl (stereo not drawn) [Example 15, 1-(3-chloro-4-cyano-2-fluorophenyl)-N-(6-((1-((1-(4-((2,6-dioxopiperidin-3-yl)amino)-2-fluorophenyl)piperidin-4-yl)methyl)piperidin-4-yl)oxy)pyridazin-3-yl)piperidine-4-carboxamide]
- Dmax at 0.01 µM (VCaP, 20 h): 98%
- Dmax at 0.1 µM (VCaP, 20 h): 100%

SMILES: N#Cc1ccc(N2CCC(C(=O)Nc3ccc(OC4CCN(CC5CCN(c6ccc(N[C@H]7CCC(=O)NC7=O)cc6F)CC5)CC4)cn3)CC2)cc1C(F)(F)F [Example 2, (S)-1-(4-cyano-3-(trifluoromethyl)phenyl)-N-(5-((1-((1-(4-((2,6-dioxopiperidin-3-yl)amino)-2-fluorophenyl)piperidin-4-yl)methyl)piperidin-4-yl)oxy)pyridin-2-yl)piperidine-4-carboxamide]
- Dmax at 0.01 µM (VCaP, 20 h): 83%
- Dmax at 0.1 µM (VCaP, 20 h): 99%
- Dmax (VCaP): 99%
- DC50 (VCaP cells, 20 hours): 0.19 nM

SMILES: COc1cc(N2CCC(C(=O)Nc3ccc(OC4CCN(CC5CCN(c6ccc(NC7CCC(=O)NC7=O)cc6F)CC5)CC4)nn3)CC2)ccc1C#N (stereo not drawn) [Example 16, 1-(4-cyano-3-methoxyphenyl)-N-(6-((1-((1-(4-((2,6-dioxopiperidin-3-yl)amino)-2-fluorophenyl)piperidin-4-yl)methyl)piperidin-4-yl)oxy)pyridazin-3-yl)piperidine-4-carboxamide]
- Dmax at 0.01 µM [1]: 99%
- Dmax at 0.1 µM [2]: 100%

SMILES: N#Cc1ccc(N2CCC(C(=O)Nc3ccc(OC4CCN(CC5CCN(c6ccc(NC7CCC(=O)NC7=O)cc6F)CC5)CC4)cn3)CC2)c(F)c1Cl (stereo not drawn) [Example 12, 1-(3-chloro-4-cyano-2-fluorophenyl)-N-(5-((1-((1-(4-((2,6-dioxopiperidin-3-yl)amino)-2-fluorophenyl)piperidin-4-yl)methyl)piperidin-4-yl)oxy)pyridin-2-yl)piperidine-4-carboxamide]
- Dmax at 0.01 µM (VCaP, 20 h): 94%
- Dmax at 0.1 µM (VCaP, 20 h): 98%

SMILES: N#Cc1ccc(N2CCC(C(=O)Nc3ccc(OC4CCN(CC5CCN(c6ccc(NC7CCC(=O)NC7=O)cc6F)CC5)CC4)cn3)CC2)cc1C(F)(F)F (stereo not drawn) [Example 1, 1-(4-cyano-3-(trifluoromethyl)phenyl)-N-(5-((1-((1-(4-((2,6-dioxopiperidin-3-yl)amino)-2-fluorophenyl)piperidin-4-yl)methyl)piperidin-4-yl)oxy)pyridin-2-yl)piperidine-4-carboxamide]
- Dmax at 0.01 µM (VCaP, 20 h): 89%
- Dmax at 0.1 µM (VCaP, 20 h): 99%

SMILES: N#Cc1ccc(N2CCC(C(=O)Nc3ccc(OC4CCN(CC5CCN(c6ccc(N[C@@H]7CCC(=O)NC7=O)cc6F)CC5)CC4)cn3)CC2)cc1C(F)(F)F [Example 3, (R)-1-(4-cyano-3-(trifluoromethyl)phenyl)-N-(5-((1-((1-(4-((2,6-dioxopiperidin-3-yl)amino)-2-fluorophenyl)piperidin-4-yl)methyl)piperidin-4-yl)oxy)pyridin-2-yl)piperidine-4-carboxamide]
- Dmax at 0.01 µM (VCaP, 20 h): 72%
- Dmax at 0.1 µM (VCaP, 20 h): 96%

SMILES: COc1cc(N2CCC(C(=O)Nc3ccc(OC4CCN(CC5CCN(c6ccc(NC7CCC(=O)NC7=O)cc6F)CC5)CC4)cn3)CC2)ccc1C#N (stereo not drawn) [Example 13, 1-(4-cyano-3-methoxyphenyl)-N-(5-((1-((1-(4-((2,6-dioxopiperidin-3-yl)amino)-2-fluorophenyl)piperidin-4-yl)methyl)piperidin-4-yl)oxy)pyridin-2-yl)piperidine-4-carboxamide]
- Dmax at 0.01 µM [1]: 95%
- Dmax at 0.1 µM [2]: 100%

SMILES: N#Cc1ccc(N2CCC(C(=O)Nc3ccc(OC4CCN(CC5CCN(c6ccc(NC7CCC(=O)NC7=O)cc6Cl)CC5)CC4)cn3)CC2)cc1C(F)(F)F (stereo not drawn) [Example 17, N-(5-((1-((1-(2-chloro-4-((2,6-dioxopiperidin-3-yl)amino)phenyl)piperidin-4-yl)methyl)piperidin-4-yl)oxy)pyridin-2-yl)-1-(4-cyano-3-(trifluoromethyl)phenyl)piperidine-4-carboxamide]
- Dmax at 0.01 µM (VCaP, 20 h): 75%
- Dmax at 0.1 µM (VCaP, 20 h): 97%
